In US20260070945A1, “MACROCYCLIC IMMUNOMODULATORS” (Bristol-Myers Squibb Company, priority 2022, published 2026):
pIC50: −log10 of the molar value. *1 amine or outer side, *2 acyl side, *3 side chain or, on linkers, in order; H or OH if unused. Where a SMILES comes first, the peptide text is derived from it. Bridges are numbered along the chain shown (N, C = ends). [ ]: non-standard residue; d: D form. The star is where a group is joined. ξ: configuration not given here. Phe(3-CF3) = N[C@@H](Cc1cccc(C(F)(F)F)c1)C(=O)O; Phe(4-COOH) = N[C@@H](Cc1ccc(C(=O)O)cc1)C(=O)O; Bip = N[C@@H](Cc1ccc(-c2ccccc2)cc1)C(=O)O; Phe(3-Me) = Cc1cccc(C[C@H](N)C(=O)O)c1; γGlu = O=C(O)[C@H](CCC(=O)[*:2])N[*:1]; NH(CH2)12COOH = O=C(O)CCCCCCCCCCCCN*; Val(3-OH) = CC(C)(O)[C@H](N)C(=O)O; hPhe = N[C@@H](CCc1ccccc1)C(=O)O; 4Pal = N[C@@H](Cc1ccncc1)C(=O)O; Cha = N[C@@H](CC1CCCCC1)C(=O)O; Cit = NC(=O)NCCC[C@H](N)C(=O)O; Ile(3ξ) = CCC(C)[C@H](N)C(=O)O; Thr(3ξ) = CC(O)[C@H](N)C(=O)O; NMeNle = CCCC[C@H](NC)C(=O)O; 12Ado = NCCCCCCCCCCCC(=O)O; Carboxymethyl = O=C(O)C*; NMeA = CN[C@@H](C)C(=O)O; Orn = NCCC[C@H](N)C(=O)O; Aun = NCCCCCCCCCCC(=O)O; Dab = NCC[C@H](N)C(=O)O; Dap = NC[C@H](N)C(=O)O; AEEA = NCCOCCOCC(=O)O; Ac3c = NC1(C(=O)O)CC1

Biological target: T1, PD-1/PD-L1 interaction (PE-labeled human PD-L1-Ig binding to Jurkat cell line over-expressing human PD-1) (Homo sapiens, UniProt Q15116)
T1 construct: expressed in transfected cells; host or cells: Jurkat
T1 sequence (Q15116 25-288): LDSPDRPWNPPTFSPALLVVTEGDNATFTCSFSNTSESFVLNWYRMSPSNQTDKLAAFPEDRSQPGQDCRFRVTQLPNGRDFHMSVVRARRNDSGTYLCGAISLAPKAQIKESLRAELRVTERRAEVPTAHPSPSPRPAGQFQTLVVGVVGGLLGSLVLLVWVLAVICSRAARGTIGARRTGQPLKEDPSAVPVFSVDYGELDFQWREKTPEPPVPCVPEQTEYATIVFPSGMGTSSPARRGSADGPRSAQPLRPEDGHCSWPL
Assay: Jurkat-PD-1 Cell Binding High-Content Screening Assay (CBA)
Details: Jurkat-hPD-1 cells, PE-labeled PD-L1-Ig 20 nM final; read-out: Jurkat HPD1 PDL1 IC50
Outline: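 Read-out: high-content imaging of cell-bound PE fluorescence, with Hoechst 33342 nuclear counterstain after paraformaldehyde fixation. Before labeled ligand (20 nM final, 1 h) was added, compound sat on the cells for 2 h at 37 °C in DMEM/10% FCS.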

| Compound | pIC50 |
| --- | --- |
| Cc1cccc(C[C@@H]2NC(=O)[C@H](CC(=O)O)NC(=O)[C@H](Cc3ccc(OCC(=O)O)cc3)NC(=O)[C@H](CCc3ccccc3)NC(=O)CSC[C@@H](C(=O)N[C@@H](CCN)C(=O)NCCCCCCCCCCC(=O)O)NC(=O)[C@H](CO)NC(=O)[C@H](C(C)C)NC(=O)[C@H](CC3CCCCC3)NC(=O)[C@H](CCN)NC(=O)[C@@H](CC(C)C)NC(=O)[C@H](C)N(C)C(=O)[C@H](Cc3ccc(O)cc3)NC(=O)[C@H](Cc3ccc(-c4ccccc4)cc3)NC(=O)[C@H](Cc3ccc(OCC(=O)O)cc3)NC2=O)c1 [Example 1276] ({CH2CO}-[hPhe]Y(Carboxymethyl)D[Phe(3-Me)]Y(Carboxymethyl)[Bip]Y[NMeA][dL][Dab][Cha]VSC[Dab][Aun]-OH; thioether N-14) | 6.85 |
| CC(C)C[C@H]1NC(=O)[C@H](C)N(C)C(=O)[C@H](CCCNC(N)=O)NC(=O)[C@H](Cc2ccc(-c3ccccc3)cc2)NC(=O)[C@H](Cc2ccc(C(=O)O)cc2)NC(=O)[C@H](Cc2cccc(C(F)(F)F)c2)NC(=O)[C@H](CC(=O)O)NC(=O)[C@H](Cc2ccc(OCC(=O)O)cc2)NC(=O)[C@H](Cc2ccc(C(=O)O)cc2)NC(=O)CSC[C@@H](C(=O)N[C@@H](CCN)C(=O)NCCCCCCCCCCCCC(=O)O)NC(=O)[C@H](CC(=O)O)NC(=O)[C@H](C(C)(C)O)NC(=O)[C@H](CC2CCCCC2)NC(=O)[C@H](CCN)NC1=O [Example 1146] ({CH2CO}-[Phe(4-COOH)]Y(Carboxymethyl)D[Phe(3-CF3)][Phe(4-COOH)][Bip][Cit][NMeA][dL][Dab][Cha][Val(3-OH)]DC[Dab]-{NH(CH2)12COOH}; thioether N-14) | 7.86 |
| CC(C)C[C@H]1NC(=O)[C@H](C)N(C)C(=O)[C@H](C(C)C)NC(=O)[C@H](Cc2ccc(-c3ccccc3)cc2)NC(=O)[C@H](C(C)C)NC(=O)[C@H](Cc2c[nH]c3ccccc23)NC(=O)[C@H](CC(=O)O)NC(=O)[C@H](Cc2ccc(OCC(=O)O)cc2)NC(=O)[C@H](Cc2ccncc2)NC(=O)CSC[C@@H](C(=O)N[C@@H](CCN)C(=O)NCCOCCOCC(=O)N[C@@H](CCC(=O)NCCOCCOCC(=O)N[C@@H](CCCCN)C(=O)NCCCCCCCCCCCC(=O)O)C(=O)O)NC(=O)[C@H](CO)NC(=O)[C@H](C(C)C)NC(=O)[C@H](CC2CCCCC2)NC(=O)[C@H](CCN)NC1=O [Example 2118] ({CH2CO}-[4Pal]Y(Carboxymethyl)DWV[Bip]V[NMeA][dL][Dab][Cha]VSC[Dab][AEEA][γGlu][AEEA]K[12Ado]-OH; thioether N-14) | 7.84 |
| Cc1cccc(C[C@@H]2NC(=O)[C@H](CC(=O)O)NC(=O)[C@H](Cc3ccc(OCC(=O)O)cc3)NC(=O)[C@H](C(C)O)NC(=O)CSC[C@@H](C(=O)NCCOCCOCC(=O)NCCCCCCCCCCC(=O)O)NC(=O)[C@H](C(C)O)NC(=O)[C@H](C(C)C)NC(=O)[C@H](CC3CCCCC3)NC(=O)[C@H](CCN)NC(=O)[C@@H](CC(C)C)NC(=O)[C@H](C)N(C)C(=O)[C@H](Cc3ccc(OCC(=O)O)cc3)NC(=O)[C@H](Cc3ccc(-c4ccccc4)cc3)NC(=O)[C@H](C(C)C)NC2=O)c1 (stereo partly drawn) [Example 2346] ({CH2CO}-[Thr(3ξ)]Y(Carboxymethyl)D[Phe(3-Me)]V[Bip]Y(Carboxymethyl)[NMeA][dL][Dab][Cha]V[Thr(3ξ)]C[AEEA][Aun]-OH; thioether N-14) | 7.64 |

Continued, values first:

| pIC50 | Compound |
| --- | --- |
| 7.37 | CC(C)C[C@H]1NC(=O)[C@H](C)N(C)C(=O)[C@H](CCCNC(N)=O)NC(=O)[C@H](Cc2ccc(-c3ccccc3)cc2)NC(=O)[C@H](Cc2ccc(O)cc2)NC(=O)[C@H](Cc2c[nH]c3ccccc23)NC(=O)[C@H](CC(=O)O)NC(=O)[C@H](Cc2ccc(OCC(=O)O)cc2)NC(=O)[C@H](CCCNC(=N)N)NC(=O)CSC[C@@H](C(=O)N[C@@H](CCN)C(=O)NCCCCCCCCCCC(=O)O)NC(=O)[C@H]([C@@H](C)O)NC(=O)[C@H](C(C)C)NC(=O)[C@H](CC2CCCCC2)NC(=O)[C@H](CCN)NC1=O [Example 1354] ({CH2CO}-RY(Carboxymethyl)DWY[Bip][Cit][NMeA][dL][Dab][Cha]VTC[Dab][Aun]-OH; thioether N-14) |
| 7.91 | CC(C)C[C@@H]1NC(=O)[C@H](Cc2c[nH]c3ccccc23)NC(=O)[C@H](CC(=O)O)NC(=O)[C@H](Cc2ccncc2)NC(=O)[C@H](Cc2ccc(OCC(=O)O)cc2)NC(=O)CSC[C@@H](C(=O)N[C@@H](CCCN)C(=O)NCCCCCCCCCCC(=O)O)NC(=O)[C@H]([C@@H](C)O)NC(=O)[C@H](C(C)C)NC(=O)[C@H](CC2CCCCC2)NC(=O)[C@H](CCN)NC(=O)[C@@H](CC(C)C)NC(=O)[C@H](C)N(C)C(=O)[C@H](C(C)C)NC(=O)[C@H](Cc2ccc(-c3ccccc3)cc2)NC1=O [Example 1331] ({CH2CO}-Y(Carboxymethyl)[4Pal]DWL[Bip]V[NMeA][dL][Dab][Cha]VTC[Orn][Aun]-OH; thioether N-14) |
| 6.57 | CCCC[C@H]1C(=O)N[C@H](CC(C)C)C(=O)N[C@@H](CCN)C(=O)N[C@@H](CC2CCCCC2)C(=O)N[C@@H](C(C)C)C(=O)N[C@@H](C(C)O)C(=O)N[C@H](C(=O)N[C@@H](CCCCN)C(=O)NCCOCCOCC(=O)NCCCCCCCCCCC(=O)O)CSCC(=O)N[C@@H](Cc2ccncc2)C(=O)N[C@@H](Cc2ccc(OCC(=O)O)cc2)C(=O)N[C@@H](CC(=O)O)C(=O)N[C@@H](Cc2c[nH]c3ccccc23)C(=O)N[C@@H](C(C)C)C(=O)N[C@@H](Cc2ccc(-c3ccccc3)cc2)C(=O)N[C@@H](CC(C)C)C(=O)N1C (stereo partly drawn) [Example 2115] ({CH2CO}-[4Pal]Y(Carboxymethyl)DWV[Bip]L[NMeNle][dL][Dab][Cha]V[Thr(3ξ)]CK[AEEA][Aun]-OH; thioether N-14) |
| 7.63 | CCC(C)[C@@H]1NC(=O)[C@H](Cc2ccc(-c3ccccc3)cc2)NC(=O)[C@H](CC(C)C)NC(=O)[C@H](Cc2c[nH]c3ccccc23)NC(=O)[C@H](CC(=O)O)NC(=O)[C@H](Cc2ccc(C(=O)O)cc2)NC(=O)[C@H](Cc2ccc(OCC(=O)O)cc2)NC(=O)CSC[C@@H](C(=O)N[C@@H](CC(N)=O)C(=O)NCCOCCOCC(=O)NCCCCCCCCCCC(=O)O)NC(=O)[C@H](CO)NC(=O)[C@H](C(C)(C)O)NC(=O)[C@H](CC2CCCCC2)NC(=O)[C@H](CCN)NC(=O)[C@@H](CC(C)C)NC(=O)[C@H](C)N(C)C1=O (stereo partly drawn) [Example 1409] ({CH2CO}-Y(Carboxymethyl)[Phe(4-COOH)]DWL[Bip][Ile(3ξ)][NMeA][dL][Dab][Cha][Val(3-OH)]SCN[AEEA][Aun]-OH; thioether N-14) |
| 8.39 | CC(C)C[C@@H]1NC(=O)[C@H](Cc2c[nH]c3ccccc23)NC(=O)[C@H](CC(=O)O)NC(=O)[C@H](Cc2ccc(OCC(=O)O)cc2)NC(=O)[C@H](Cc2ccc(OCC(=O)O)cc2)NC(=O)CSC[C@@H](C(=O)NC2(C(=O)NCCOCCOCC(=O)NCCCCCCCCCCC(=O)O)CC2)NC(=O)[C@H](CCCNC(=N)N)NC(=O)[C@H](C(C)C)NC(=O)[C@H](CC2CCCCC2)NC(=O)[C@H](CCN)NC(=O)[C@@H](CC(C)C)NC(=O)[C@H](C)N(C)C(=O)[C@H](C(C)C)NC(=O)[C@H](Cc2ccc(-c3ccccc3)cc2)NC1=O [Example 1247] ({CH2CO}-Y(Carboxymethyl)Y(Carboxymethyl)DWL[Bip]V[NMeA][dL][Dab][Cha]VRC[Ac3c][AEEA][Aun]-OH; thioether N-14) |
| 7.93 | CC(C)C[C@@H]1NC(=O)[C@H](Cc2c[nH]c3ccccc23)NC(=O)[C@H](CC(=O)O)NC(=O)[C@H](Cc2ccc(OCC(=O)O)cc2)NC(=O)[C@H](Cc2ccc(OCC(=O)O)cc2)NC(=O)CSC[C@@H](C(=O)N[C@@H](CCCN)C(=O)NCCOCCOCC(=O)NCCCCCCCCCCC(=O)O)NC(=O)[C@H](CO)NC(=O)[C@H](C(C)C)NC(=O)[C@H](CC2CCCCC2)NC(=O)[C@H](CCN)NC(=O)[C@@H](CC(C)C)NC(=O)[C@H](C)N(C)C(=O)[C@H](C(C)C)NC(=O)[C@H](Cc2ccc(-c3ccccc3)cc2)NC1=O [Example 2130] ({CH2CO}-Y(Carboxymethyl)Y(Carboxymethyl)DWL[Bip]V[NMeA][dL][Dab][Cha]VSC[Orn][AEEA][Aun]-OH; thioether N-14) |
| 7.49 | CC(C)C[C@@H]1NC(=O)[C@H](Cc2c[nH]c3ccccc23)NC(=O)[C@H](CC(=O)O)NC(=O)[C@H](Cc2ccc(C(=O)O)cc2)NC(=O)[C@H](Cc2ccc(OCC(=O)O)cc2)NC(=O)CSC[C@@H](C(=O)N[C@@H](CCCN)C(=O)NCCOCCOCC(=O)NCCCCCCCCCCC(=O)O)NC(=O)[C@H](CN)NC(=O)[C@H](C(C)C)NC(=O)[C@H](CC2CCCCC2)NC(=O)[C@H](CCN)NC(=O)[C@@H](CC(C)C)NC(=O)[C@H](C)N(C)C(=O)[C@H](C(C)C)NC(=O)[C@H](Cc2ccc(-c3ccccc3)cc2)NC1=O [Example 2134] ({CH2CO}-Y(Carboxymethyl)[Phe(4-COOH)]DWL[Bip]V[NMeA][dL][Dab][Cha]V[Dap]C[Orn][AEEA][Aun]-OH; thioether N-14) |

Same assay, conditions: PE-labeled PD-L1-Ig 20 nM final, Jurkat-hPD-1 cells; read-out: Jurkat HPD1 PDL1 IC50

| Compound | pIC50 |
| --- | --- |
| Cc1cccc(C[C@@H]2NC(=O)[C@H](CC(=O)O)NC(=O)[C@H](Cc3ccc(C(=O)O)cc3)NC(=O)[C@H](C(C)O)NC(=O)CSC[C@@H](C(=O)N[C@@H](CCN)C(=O)NCCOCCOCC(=O)NCCCCCCCCCCC(=O)O)NC(=O)[C@H](CCC(=O)O)NC(=O)[C@H](CO)NC(=O)[C@H](CC3CCCCC3)NC(=O)[C@H](CCN)NC(=O)[C@@H](CC(C)C)NC(=O)[C@H](C)N(C)C(=O)[C@H](Cc3ccc(C(=O)O)cc3)NC(=O)[C@H](Cc3ccc(-c4ccccc4)cc3)NC(=O)[C@H](Cc3ccc(C(=O)O)cc3)NC2=O)c1 (stereo partly drawn) [Example 2556] ({CH2CO}-[Thr(3ξ)][Phe(4-COOH)]D[Phe(3-Me)][Phe(4-COOH)][Bip][Phe(4-COOH)][NMeA][dL][Dab][Cha]SEC[Dab][AEEA][Aun]-OH; thioether N-14) | 7.39 |
